The text below walks through data of US20260265265A1, “NOVEL BENZIMIDAZOLONE DERIVATIVE COMPOUND AS AUTOTAXIN INHIBITOR” (LG CHEM, LTD., priority 2023, published 2026).

pIC50: −log10 of the molar value.

By pIC50 is commonly meant −log10 of the IC50, conventionally taken in molar units.

For this assay, the target named is T1, Recombinant Human ENPP-2/Autotaxin (Homo sapiens, UniProt Q13822).
T1 construct: purchased R&D systems 5255-EN
Kind of assay: LysoPLD activity measurement (autotaxin enzyme inhibition, choline release, TOOS reagent). It is filed as biochemical. Particulars: LysoPLD inhibitory activity; substrate 14:0 LysoPC; absorbance at 555 nm. In outline:
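Autotaxin lysoPLD activity was read as choline released from 14:0 LysoPC, detected by TOOS reagent absorbance. Compound was preincubated 30 min, then substrate diluted to 300 μM was added and the reaction ran 90 minutes at 37° C. Controls contained 1% DMSO.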

As for `CN1Cc2cc(-n3c(=O)n(Cc4cccc(C(=O)O)c4F)c4ccc(Cl)cc43)ccc2C1=O` [Example 117, 3-((5-chloro-3-(2-methyl-1-oxoisoindolin-5-yl)-2-oxo-2,3-dihydro-1H-benzo[d]imidazol-1-yl)methyl)-2-fluorobenzoic acid], the negative-log IC50 (pIC50) is 7.00 to 8.00.

Take `O=C(O)c1cccc(Cn2c(=O)n(-c3cnc(N4CCOCC4)nc3)c3cc(Cl)ccc32)c1` [Example 83, 3-((5-chloro-3-(2-morpholinopyrimidin-5-yl)-2-oxo-2,3-dihydro-1H-benzo[d]imidazol-1-yl)methyl)benzoic acid]: the negative logarithm of the IC50 (pIC50) was 6.00 to 7.00.

In the case of `O=C(O)c1cc(F)cc(C2(n3c(=O)n(-c4ccc(C5CCOCC5)cc4)c4cc(Cl)cnc43)CC2)c1` [Example 273, 3-(1-(6-chloro-2-oxo-1-(4-(tetrahydro-2H-pyran-4-yl)phenyl)-1,2-dihydro-3H-imidazo[4,5-b]pyridin-3-yl)cyclopropyl)-5-fluorobenzoic acid], the pIC50 was 7.00 to 8.00. The result for `O=C(O)c1cccc(C2(n3c(=O)n(-c4ccc(CC(=O)N5CCCCC5)cc4)c4cc(Cl)ccc43)CC2)c1` [Example 171, 3-(1-(5-chloro-2-oxo-3-(4-(2-oxo-2-(piperidin-1-yl)ethyl)phenyl)-2,3-dihydro-1H-benzo[d]imidazol-1-yl)cyclopropyl)benzoic acid] reads greater than 8.00; that for `CN(C)c1ccc(-n2c(=O)n(Cc3cccc(C(=O)O)c3)c3ccc(Cl)cc32)cn1` [Example 79, 3-((5-chloro-3-(6-(dimethylamino)pyridin-3-yl)-2-oxo-2,3-dihydro-1H-benzo[d]imidazol-1-yl)methyl)benzoic acid], 7.00 to 8.00. As to `CCC(=O)N1CCC(c2ccc(-n3c(=O)n(C4(c5cccc(C(=O)O)c5)CC4)c4ccc(Cl)cc43)cc2)CC1` [Example 234, 3-(1-(5-chloro-2-oxo-3-(4-(1-propionylpiperidin-4-yl)phenyl)-2,3-dihydro-1H-benzo[d]imidazol-1-yl)cyclopropyl)benzoic acid], the pIC50 is greater than 8.00. For `O=C(O)c1cccc(C2(n3c(=O)n(-c4ccc(S(=O)(=O)NC5CC5)cc4)c4cc(Cl)ccc43)CC2)c1` [Example 211, 3-(1-(5-chloro-3-(4-(N-cyclopropylsulfamoyl)phenyl)-2-oxo-2,3-dihydro-1H-benzo[d]imidazol-1-yl)cyclopropyl)benzoic acid], the pIC50 is greater than 8.00.

In the case of `O=C(O)c1c(F)ccc(Cn2c(=O)n(-c3ccc(N4CCOCC4)cc3)c3c(F)c(Cl)ccc32)c1F` [Example 204, 3-((5-chloro-4-fluoro-3-(4-morpholinophenyl)-2-oxo-2,3-dihydro-1H-benzo[d]imidazol-1-yl)methyl)-2,6-difluorobenzoic acid], the negative logarithm of the IC50 (pIC50) is 7.00 to 8.00. To `O=C(O)c1cccc(Cn2c(=O)n(-c3ccc(-c4ccccc4)cc3)c3cc(Cl)ccc32)c1` [Example 15, 3-((3-([1,1′-biphenyl]-4-yl)-5-chloro-2-oxo-2,3-dihydro-1H-benzo[d]imidazol-1-yl)methyl)benzoic acid] belongs 6.00 to 7.00. `O=C(O)c1cccc(Cn2c(=O)n(-c3ccc(OCC4CC4)cc3)c3cc(Cl)ccc32)c1` [Example 42, 3-((5-chloro-3-(4-(cyclopropylmethoxy)phenyl)-2-oxo-2,3-dihydro-1H-benzo[d]imidazol-1-yl)methyl)benzoic acid]: the negative-log IC50 (pIC50) was 6.00 to 7.00. For `CN(C)C(=O)c1ccc(-n2c(=O)n(CCc3cccc(C(=O)O)c3)c3ccc(Cl)cc32)cc1` [Example 113, 3-(2-(5-chloro-3-(4-(dimethylcarbamoyl)phenyl)-2-oxo-2,3-dihydro-1H-benzo[d]imidazol-1-yl)ethyl)benzoic acid], the negative logarithm of the IC50 (pIC50) was 6.00 to 7.00. `O=C(O)c1cccc(C2(n3c(=O)n(-c4ccc(N5CC6CCC(C5)O6)cc4)c4cc(Cl)ccc43)CC2)c1` [Example 182, 3-(1-(3-(4-(8-oxa-3-azabicyclo[3.2.1]octan-3-yl)phenyl)-5-chloro-2-oxo-2,3-dihydro-1H-benzo[d]imidazol-1-yl)cyclopropyl)benzoic acid]: the negative-log IC50 (pIC50) is greater than 8.00. For the compound `O=C(O)c1cccc(C2(n3c(=O)n(-c4ccc(C5CCOC5)cc4)c4cc(Cl)ccc43)CC2)c1F` (stereo not shown) [Example 250, 3-(1-(5-chloro-2-oxo-3-(4-(tetrahydrofuran-3-yl)phenyl)-2,3-dihydro-1H-benzo[d]imidazol-1-yl)cyclopropyl)-2-fluorobenzoic acid], the pIC50 is greater than 8.00. As to `CN1Cc2cc(-n3c(=O)n(Cc4cccc(C(=O)O)c4)c4ccc(Cl)cc43)ccc2C1=O` [Example 116, 3-((5-chloro-3-(2-methyl-1-oxoisoindolin-5-yl)-2-oxo-2,3-dihydro-1H-benzo[d]imidazol-1-yl)methyl)benzoic acid], the pIC50 is 6.00 to 7.00. `O=C(O)c1cccc(C2(n3c(=O)n(-c4ccc(CC(=O)N5CC(O)C5)cc4)c4cc(Cl)ccc43)CC2)c1` [Example 174, 3-(1-(5-chloro-3-(4-(2-(3-hydroxyazetidin-1-yl)-2-oxoethyl)phenyl)-2-oxo-2,3-dihydro-1H-benzo[d]imidazol-1-yl)cyclopropyl)benzoic acid]: the pIC50 is greater than 8.00.

Take `O=C(O)c1cccc(Cn2c(=O)n(-c3ccc(N4CCOCC4)cc3)c3cc(Cl)ccc32)c1` [Example 47, 3-((5-chloro-3-(4-morpholinophenyl)-2-oxo-2,3-dihydro-1H-benzo[d]imidazol-1-yl)methyl)benzoic acid]: the pIC50 is 7.00 to 8.00. To `O=C(O)c1cccc(Cn2c(=O)n(-c3ccc(C4CC4)cn3)c3cc(Cl)ccc32)c1` [Example 163, 3-((5-chloro-3-(5-cyclopropylpyridin-2-yl)-2-oxo-2,3-dihydro-1H-benzo[d]imidazol-1-yl)methyl)benzoic acid] belongs 6.00 to 7.00; to `CN(C)c1ccc(-n2c(=O)n(C3(c4cccc(C(=O)O)c4)CC3)c3ccc(Cl)cc32)cc1` [Example 69, 3-(1-(5-chloro-3-(4-(dimethylamino)phenyl)-2-oxo-2,3-dihydro-1H-benzo[d]imidazol-1-yl)cyclopropyl)benzoic acid], greater than 8.00. `CCCOc1ccc(-n2c(=O)n(Cc3cccc(C(=O)O)c3)c3ccc(Cl)cc32)cn1` [Example 76, 3-((5-chloro-2-oxo-3-(6-propoxypyridin-3-yl)-2,3-dihydro-1H-benzo[d]imidazol-1-yl)methyl)benzoic acid]: the negative-log IC50 (pIC50) is 6.00 to 7.00. Turning to `CC(C)(O)c1ccc(-n2c(=O)n(Cc3cccc(C(=O)O)c3)c3ccc(Cl)cc32)cc1` [Example 18, 3-((5-chloro-3-(4-(2-hydroxypropan-2-yl)phenyl)-2-oxo-2,3-dihydro-1H-benzo[d]imidazol-1-yl)methyl)benzoic acid], the pIC50 is 7.00 to 8.00. As to `O=C(O)c1cccc(Cn2c(=O)n(-c3ccc(N4CC(O)C4)cc3)c3c(F)c(Cl)ccc32)c1` [Example 53, 3-((5-chloro-4-fluoro-3-(4-(3-hydroxyazetidin-1-yl)phenyl)-2-oxo-2,3-dihydro-1H-benzo[d]imidazol-1-yl)methyl)benzoic acid], the pIC50 is 7.00 to 8.00. To `O=C(O)c1cccc(C2(n3c(=O)n(-c4ccc(-c5nnc(C6CCOCC6)o5)cc4)c4cc(Cl)ccc43)CC2)c1F` [Example 268, 3-(1-(5-chloro-2-oxo-3-(4-(5-(tetrahydro-2H-pyran-4-yl)-1,3,4-oxadiazol-2-yl)phenyl)-2,3-dihydro-1H-benzo[d]imidazol-1-yl)cyclopropyl)-2-fluorobenzoic acid] belongs greater than 8.00.
